{"source": "patent US20250034216A1", "about": "“STEREOSELECTIVE COVALENT LIGANDS FOR ONCOGENIC AND IMMUNOLOGICAL PROTEINS” (The Scripps Research Institute, priority 2021, published 2025)", "experiment_in_all_cases": "IA-DTB cysteine engagement", "type_in_all_cases": "binding", "conditions_in_all_cases": "22Rv1 cells, 20 μM probe, 1 h, relative to DMSO", "key": {"PTGES2_C110": {"molecular_target": "T1, PTGES2_C110 (Homo sapiens, UniProt Q9H7Z7)", "T1 construct": "endogenous in cells; host or cells: 22Rv1", "T1 sequence (Q9H7Z7 whole entry)": "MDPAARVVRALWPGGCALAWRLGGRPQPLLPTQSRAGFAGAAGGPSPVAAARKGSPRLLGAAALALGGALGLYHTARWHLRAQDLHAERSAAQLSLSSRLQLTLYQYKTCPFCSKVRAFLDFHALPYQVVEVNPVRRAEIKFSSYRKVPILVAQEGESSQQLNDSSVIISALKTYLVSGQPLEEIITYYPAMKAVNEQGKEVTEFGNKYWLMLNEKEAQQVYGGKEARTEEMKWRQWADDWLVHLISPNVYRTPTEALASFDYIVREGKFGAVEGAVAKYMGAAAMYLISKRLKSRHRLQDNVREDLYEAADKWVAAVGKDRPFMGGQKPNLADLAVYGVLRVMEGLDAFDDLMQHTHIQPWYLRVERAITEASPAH", "method_in_brief": "(§1)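 First, cells are exposed to electrophilic probes in situ. Next, lysates are labeled with IA-DTB (1 h, ambient temperature), reduced, alkylated and trypsin-digested. Then, IA-DTB peptides are enriched on streptavidin, TMT-labeled and analyzed, with ratios taken against DMSO channels.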"}, "WDR45B_C63": {"molecular_target": "T2, WDR45B_C63 (Homo sapiens, UniProt Q5MNZ6)", "T2 construct": "endogenous in cells; host or cells: 22Rv1", "T2 sequence (Q5MNZ6 whole entry)": "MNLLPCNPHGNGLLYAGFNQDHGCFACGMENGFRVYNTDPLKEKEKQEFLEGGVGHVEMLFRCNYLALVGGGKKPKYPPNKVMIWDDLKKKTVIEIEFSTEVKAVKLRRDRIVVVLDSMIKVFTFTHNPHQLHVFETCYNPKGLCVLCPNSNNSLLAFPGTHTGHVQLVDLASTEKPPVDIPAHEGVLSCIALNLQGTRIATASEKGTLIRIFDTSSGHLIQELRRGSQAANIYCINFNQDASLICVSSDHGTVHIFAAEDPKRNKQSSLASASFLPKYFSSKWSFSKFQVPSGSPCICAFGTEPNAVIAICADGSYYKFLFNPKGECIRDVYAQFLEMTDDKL", "method_in_brief": "as §1"}, "ATP9A_C31": {"molecular_target": "T3, ATP9A_C31 (Homo sapiens, UniProt O75110)", "T3 construct": "endogenous in cells; host or cells: 22Rv1", "T3 sequence (O75110 1-1047)": "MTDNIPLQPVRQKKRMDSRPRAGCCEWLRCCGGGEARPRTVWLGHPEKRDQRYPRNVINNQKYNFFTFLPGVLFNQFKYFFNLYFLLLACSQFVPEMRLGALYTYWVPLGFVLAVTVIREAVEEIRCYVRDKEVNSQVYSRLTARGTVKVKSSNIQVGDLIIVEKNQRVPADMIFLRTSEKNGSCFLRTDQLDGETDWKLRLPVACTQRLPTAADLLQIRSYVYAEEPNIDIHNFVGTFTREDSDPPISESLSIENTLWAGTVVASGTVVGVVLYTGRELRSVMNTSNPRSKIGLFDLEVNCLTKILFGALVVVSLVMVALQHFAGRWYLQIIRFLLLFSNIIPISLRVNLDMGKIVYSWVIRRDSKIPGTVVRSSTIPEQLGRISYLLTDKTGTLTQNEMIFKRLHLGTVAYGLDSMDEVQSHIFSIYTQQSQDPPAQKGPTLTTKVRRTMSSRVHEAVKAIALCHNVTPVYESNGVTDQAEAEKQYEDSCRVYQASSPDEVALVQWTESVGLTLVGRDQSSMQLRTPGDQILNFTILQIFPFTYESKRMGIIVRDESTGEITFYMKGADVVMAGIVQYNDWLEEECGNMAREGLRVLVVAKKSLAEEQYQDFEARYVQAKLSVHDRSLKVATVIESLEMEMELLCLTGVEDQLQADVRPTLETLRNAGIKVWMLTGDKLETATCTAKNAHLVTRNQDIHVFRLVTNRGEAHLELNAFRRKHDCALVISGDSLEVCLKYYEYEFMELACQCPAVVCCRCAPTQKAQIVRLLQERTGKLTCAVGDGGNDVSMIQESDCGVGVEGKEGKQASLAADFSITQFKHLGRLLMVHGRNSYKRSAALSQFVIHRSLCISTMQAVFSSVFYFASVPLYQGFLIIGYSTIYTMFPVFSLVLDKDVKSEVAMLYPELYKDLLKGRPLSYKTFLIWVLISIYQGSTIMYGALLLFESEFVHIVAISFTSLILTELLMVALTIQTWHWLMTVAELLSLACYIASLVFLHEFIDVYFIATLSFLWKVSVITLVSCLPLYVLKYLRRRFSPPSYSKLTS", "method_in_brief": "as §1"}, "SYNE2_C2994": {"molecular_target": "T4, SYNE2_C2994 (Homo sapiens, UniProt Q8WXH0)", "T4 construct": "endogenous in cells; host or cells: 22Rv1", "method_in_brief": "as §1"}, "SNX11_C181": {"molecular_target": "T5, SNX11_C181 (Homo sapiens, UniProt Q9Y5W9)", "T5 construct": "endogenous in cells; host or cells: 22Rv1", "T5 sequence (Q9Y5W9 1-270)": "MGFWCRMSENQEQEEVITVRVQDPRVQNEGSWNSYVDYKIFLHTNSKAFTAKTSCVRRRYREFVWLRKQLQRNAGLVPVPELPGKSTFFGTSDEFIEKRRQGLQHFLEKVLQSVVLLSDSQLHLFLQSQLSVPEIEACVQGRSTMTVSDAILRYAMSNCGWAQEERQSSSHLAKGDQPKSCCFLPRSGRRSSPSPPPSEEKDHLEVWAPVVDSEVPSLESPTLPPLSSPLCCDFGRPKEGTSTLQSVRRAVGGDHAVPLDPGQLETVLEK", "method_in_brief": "as §1"}}}
{"molecule": "C=CC(=O)N1C[C@@H](c2ccc(Br)cc2)[C@H]1C(=O)Nc1cccc2cccnc12", "note": "[MY-1A, (2S,3R)-1-acryloyl-3-(4-bromophenyl)-N-(quinolin-8-yl)azetidine-2-carboxamide]", "values": [{"measurement": "% engagement PTGES2_C110", "setting": "PTGES2_C110", "result": 31.25, "unit": "%"}, {"measurement": "% engagement WDR45B_C63", "setting": "WDR45B_C63", "result": 52.25, "unit": "%"}, {"measurement": "% engagement ATP9A_C31", "setting": "ATP9A_C31", "result": 84.5, "unit": "%"}, {"measurement": "% engagement SYNE2_C2994", "setting": "SYNE2_C2994", "result": 29.5, "unit": "%"}, {"measurement": "% engagement SNX11_C181", "setting": "SNX11_C181", "result": 54.5, "unit": "%"}]}
{"molecule": "C=CC(=O)N1C[C@H](c2ccc(Br)cc2)[C@@H]1C(=O)Nc1cccc2cccnc12", "note": "[MY-1B, (2R,3S)-1-acryloyl-3-(4-bromophenyl)-N-(quinolin-8-yl)azetidine-2-carboxamide]", "values": [{"measurement": "% engagement PTGES2_C110", "setting": "PTGES2_C110", "result": 38.5, "unit": "%"}, {"measurement": "% engagement WDR45B_C63", "setting": "WDR45B_C63", "result": 7.25, "unit": "%"}, {"measurement": "% engagement ATP9A_C31", "setting": "ATP9A_C31", "result": 79.5, "unit": "%"}, {"measurement": "% engagement SYNE2_C2994", "setting": "SYNE2_C2994", "result": 75.75, "unit": "%"}, {"measurement": "% engagement SNX11_C181", "setting": "SNX11_C181", "result": 68.5, "unit": "%"}]}
{"molecule": "C=CC(=O)N1C[C@H](c2ccc(Br)cc2)[C@H]1C(=O)Nc1cccc2cccnc12", "note": "[MY-3A, (2S,3S)-1-acryloyl-3-(4-bromophenyl)-N-(quinolin-8-yl)azetidine-2-carboxamide]", "values": [{"measurement": "% engagement PTGES2_C110", "setting": "PTGES2_C110", "result": 69.75, "unit": "%"}, {"measurement": "% engagement WDR45B_C63", "setting": "WDR45B_C63", "result": 0, "unit": "%"}, {"measurement": "% engagement ATP9A_C31", "setting": "ATP9A_C31", "result": 73, "unit": "%"}, {"measurement": "% engagement SYNE2_C2994", "setting": "SYNE2_C2994", "result": 11.25, "unit": "%"}, {"measurement": "% engagement SNX11_C181", "setting": "SNX11_C181", "result": 17, "unit": "%"}]}
{"molecule": "C=CC(=O)N1C[C@H](c2ccc(Br)cc2)[C@H]1C(=O)Nc1cccc2cccnc12", "note": "[MY-3B, (2S,3S)-1-acryloyl-3-(4-bromophenyl)-N-(quinolin-8-yl)azetidine-2-carboxamide]", "values": [{"measurement": "% engagement PTGES2_C110", "setting": "PTGES2_C110", "result": 89.25, "unit": "%"}, {"measurement": "% engagement WDR45B_C63", "setting": "WDR45B_C63", "result": 86.75, "unit": "%"}, {"measurement": "% engagement ATP9A_C31", "setting": "ATP9A_C31", "result": 86.5, "unit": "%"}, {"measurement": "% engagement SYNE2_C2994", "setting": "SYNE2_C2994", "result": 37.5, "unit": "%"}, {"measurement": "% engagement SNX11_C181", "setting": "SNX11_C181", "result": 23, "unit": "%"}]}
